In PMC7059139, “Inhibiting MARSs reduces hyperhomocysteinemia‐associated neural tube and congenital heart defects” (EMBO Molecular Medicine, 2020):
pIC50: −log10 of the molar value.

Columns and labels:
MARS2 = target: T1, MARS2 (Mus musculus, UniProt Q499X9); test: in vitro HTL production from Hcy ([…]), thin layer chromatography; type: biochemical
T1 construct: Flag-tagged, cDNA NM_175439.3
T1 sequence (Q499X9 47-586): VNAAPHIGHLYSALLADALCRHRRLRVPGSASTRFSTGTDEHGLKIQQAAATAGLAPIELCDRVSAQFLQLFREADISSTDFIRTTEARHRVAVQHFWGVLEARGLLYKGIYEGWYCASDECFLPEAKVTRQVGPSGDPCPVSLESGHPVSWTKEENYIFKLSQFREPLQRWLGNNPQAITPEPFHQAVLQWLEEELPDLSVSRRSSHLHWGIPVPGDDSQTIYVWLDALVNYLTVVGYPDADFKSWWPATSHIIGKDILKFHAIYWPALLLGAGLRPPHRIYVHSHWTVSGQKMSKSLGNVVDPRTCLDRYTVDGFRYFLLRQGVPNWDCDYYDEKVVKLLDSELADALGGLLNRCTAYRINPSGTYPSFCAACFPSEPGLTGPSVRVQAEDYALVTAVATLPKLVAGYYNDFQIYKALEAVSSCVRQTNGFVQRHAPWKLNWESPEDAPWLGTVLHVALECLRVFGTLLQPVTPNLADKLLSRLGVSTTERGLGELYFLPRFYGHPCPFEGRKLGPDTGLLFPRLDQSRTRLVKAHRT

[1] = target: T2, MARS (methionyl-tRNA synthetase) (Homo sapiens, UniProt P56192); test: as above; type: biochemical
T2 construct: gene MARS1; Flag-tagged, cDNA NM_004990.3
T2 sequence (P56192 1-900): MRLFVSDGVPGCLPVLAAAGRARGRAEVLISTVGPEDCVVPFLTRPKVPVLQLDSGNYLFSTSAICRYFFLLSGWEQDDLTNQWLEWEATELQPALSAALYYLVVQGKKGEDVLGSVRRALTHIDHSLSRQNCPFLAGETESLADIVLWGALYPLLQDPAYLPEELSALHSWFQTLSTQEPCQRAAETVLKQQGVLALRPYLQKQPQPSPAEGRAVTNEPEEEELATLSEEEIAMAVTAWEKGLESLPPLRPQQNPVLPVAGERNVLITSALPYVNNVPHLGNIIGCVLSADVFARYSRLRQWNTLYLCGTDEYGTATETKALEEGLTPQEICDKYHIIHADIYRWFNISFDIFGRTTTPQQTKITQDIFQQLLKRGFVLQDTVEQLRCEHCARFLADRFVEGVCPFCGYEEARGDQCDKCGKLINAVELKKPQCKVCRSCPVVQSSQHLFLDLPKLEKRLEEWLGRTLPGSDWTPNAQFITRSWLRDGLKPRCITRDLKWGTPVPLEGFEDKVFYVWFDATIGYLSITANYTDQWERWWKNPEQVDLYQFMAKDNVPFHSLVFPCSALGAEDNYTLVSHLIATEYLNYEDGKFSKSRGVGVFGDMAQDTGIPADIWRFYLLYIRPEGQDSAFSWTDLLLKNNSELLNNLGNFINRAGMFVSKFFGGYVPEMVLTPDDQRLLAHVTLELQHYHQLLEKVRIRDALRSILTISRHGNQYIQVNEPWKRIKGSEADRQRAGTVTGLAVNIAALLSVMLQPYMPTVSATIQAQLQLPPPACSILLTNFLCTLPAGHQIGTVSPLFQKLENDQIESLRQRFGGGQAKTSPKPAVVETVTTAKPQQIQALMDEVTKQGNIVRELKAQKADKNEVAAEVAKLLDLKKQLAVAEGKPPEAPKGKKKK

A pIC50 (MARS2) of 4.40 and a pIC50 [1] of 4.44 were found for `NC(=O)CSCCC(N)C(=O)O` (racemic) [compound 5, AHT] in this work.
